Test: MT-4 HIV High Resolution Antiviral Assay: Assay protocol is identical to that described for the MT-4 antiviral assay with the following changes: Each drug is run in 2 series of quadruplicates with different starting concentrations for each series and 19 1.5 fold dilutions performed across the plate. […] Data is analyzed and Hill coefficients determined in Graph Pad Prism (San Diego, Calif.).

| Compound | EC50 |
| --- | --- |
| CC(C)(C)C[C@]1(c2ccc(-c3cnn(C(F)F)c3)c(F)c2F)NC(=N)N([C@H](COC(=O)NC2(C)CC2)c2ccc(Cl)c(-n3cncn3)c2)C1=O | 0.00879 µM |
| CC(C)(C)C[C@]1(c2ccc(-c3ccn(C4CC4)n3)cc2F)NC(=N)C([C@H](COC(=O)NC2(C(F)(F)F)CC2)c2ccc(Cl)c(-n3ncnc3C(F)F)c2)C1=O (stereo partly drawn) | 0.0185 µM |
| CC(C)(C)C[C@]1(c2ccc(-c3cnccn3)cc2)NC(=N)C([C@H](COC(=O)NC2(C(F)(F)F)CC2)c2ccc(Cl)c(-c3ncn[nH]3)c2)C1=O (stereo partly drawn) | 0.0804 µM |
| CC(C)(F)C[C@H]1C(=O)N([C@H](COC(=O)NC(C)(C)C(F)F)c2ccc(Cl)c(-c3ncnn3C(F)F)c2)C(=N)N1c1ccc(Br)cc1 | 0.242 µM |
| CC(C)(C)C[C@]1(c2ccc(-c3cnn(C4CC4)n3)c(F)c2)NC(=N)N([C@H](COC(=O)NC2(C(F)(F)F)CC2)c2ccc(Cl)c(-c3ncnn3C(F)F)c2)C1=O | 0.00792 µM |
| CC(C)(C)C[C@H]1C(=O)N([C@H](COC(=O)NC(C)(C)C(F)F)c2ccc(Cl)c(-c3ncnn3C(F)F)c2)C(=N)N1c1ccc(-c2ncccn2)cc1 | 0.012 µM |

Other lines, results leading:

| EC50 | Compound |
| --- | --- |
| 0.0767 µM | CC(C)(C)C[C@]1(c2ccc(-c3nncn3C(F)F)cc2F)NC(=N)N([C@H](COC(=O)C2(C(F)(F)F)CC2)c2ccc(Cl)c(-n3ncnc3C(F)F)c2)C1=O |
| 0.0115 µM | CC(C)(C)C[C@]1(c2ccc(-c3ccn(C4CC4)n3)cc2)NC(=N)C([C@H](COC(=O)NC2(C(F)(F)F)CC2)c2ccc(Cl)c(-n3ncnc3C(F)F)c2)C1=O (stereo partly drawn) |
| 0.0165 µM | CC(C)(C)C[C@]1(c2ccc(-c3cnn(C4CC4)n3)cc2)NC(=N)N([C@H](COC(=O)NC2(C(F)(F)F)CC2)c2ccc(Cl)c(-c3ncnn3C(F)F)c2)C1=O |
| 0.0281 µM | CC(C)(C)C[C@H]1C(=O)N([C@H](COC(=O)NC2(C(F)(F)F)CC2)c2ccc(F)c(-c3ncnn3C(F)F)c2)C(=N)N1c1ccc(-c2cnn(C(F)F)c2)cc1 |
| 0.134 µM | CC(C)(C)C[C@]1(c2ccc(-c3cnn(C(F)F)c3)cc2)NC(=N)N([C@H](COC(=O)NC2(C(F)(F)F)CC2)c2ccc(-n3ncnc3C(F)F)cc2)C1=O |
| 0.0281 µM | CC(C)(C)C[C@]1(c2ccc(-c3cnn(C(F)F)c3)cc2)NC(=N)N([C@H](COC(=O)NC2(C(F)(F)F)CC2)c2ccc(Cl)c(-n3ncnc3C(F)F)c2)C1=O |
| 0.00681 µM | CC(C)(C)C[C@]1(c2ccc(-c3ncccn3)cc2)NC(=N)N([C@H](COC(=O)NC2(C(F)(F)F)CC2)c2ccc(Cl)c(C3=NC=NC3C(F)F)c2)C1=O (stereo partly drawn) |

Reference: ChEMBL document CHEMBL5727938, “HIV protease inhibitors” (2020)
